Test results taken from US20250204515A1, “Heparanase Inhibition for Graft Protection” (University of Pittsburgh - Of the Commonwealth System of …, priority 2022, published 2025).

What was measured:
heparanase (HPSE) = assay: In vitro β-D-glucuronidase activity assay (4-MUG substrate); conditions: in vitro, FIG. 8
Experimental: In vitro β-D-glucuronidase activity assay Heparanase activity was measured via β-Glucuronidase activity assay using 4-methylumbelliferyl-β-D-glucuronide (4-MUG) substrate (Millipore-Sigma). As a source of enzymes, platelet rich plasma (PRP) obtained from rat whole blood or rat lung whole tissue lysate, was used. […] Fluorescence (λex 360 nm/λem 460 nm) was continuously measured for 60 minutes using a fluorescence microplate reader (BioTech Synergy HTX, Agilent Technologies, Santa Clara, CA).

[1] = tested on: human lung microvascular endothelial cells (HLMVECs); assay: In-vitro cellular toxicity test for HPSE inhibitor candidates; conditions: HLMVECs, 24 hours
Experimental: In-vitro cellular toxicity test for HPSE Inhibitor candidates: Human lung microvascular endothelial cells (HLMVECs) were obtained from the American Type Culture Collection (Rockville, MD, USA). Cells were cultured in a humidified incubator at 37° C. and 5% CO2 and grown in endothelial growth medium (EGM™-2 Endothelial Cell Growth Medium-2, Lonza, Basel, Switzerland) supplemented with 2% heat-inactivated fetal bovine serum and 0.04% hydrocortisone. Cell media was replaced every 48 hours, and the cells were split upon 80-90% confluence.
Final tested concentrations of HPSE inhibitors were calculated based upon repeatable in vitro dose-response studies. After 24 hours incubation, cell viability was confirmed by Trypan blue exclusion assay. Total mRNA was isolated using Trizol (Thermo Fisher Scientific Inc., Waltham, MA) and relative messenger RNA (mRNA) expression levels of hemeoxygenase-1 (HO-1), interleukin (IL)-6, tumor necrosis factor (TNF)-α, monocyte chemoattractant protein (MCP)-1, B-cell lymphoma 2 Associated X (Bax), B-cell lymphoma 2 (Bcl-2), B-cell lymphoma-extra-large (Bcl-xL) were quantified by SYBR Green 2-step, real-time, reverse transcription-polymerase chain reaction (RT-PCR). Relative gene expression levels were normalized to mRNA expression of glyceraldehyde-3-phosphate dehydrogenase (GAPDH) and compared to relative mRNA expression levels in control-treated HLMVEC.

[2] = tested on: HPSE1, MMP2, IL-6, IL-1β, TNF-α mRNA; IκB-α; assay: Real-time RT-PCR and western blotting in rat lung tissue after 4 hours of EVLP
Experimental: (§1) Graft tissues collected after 4 hours of EVLP and 2 hours after reperfusion were examined for relative mRNA expression levels of interleukin (IL)-6, IL-1, tumor necrosis factor (TNF)-α, and glyceraldehyde-3-phosphate dehydrogenase (GAPDH). Gene expression levels were normalized to GAPDH mRNA levels.
Western blotting: Total isolated proteins were extracted/resolved by 10% SDS-PAGE followed by transfer to 0.2 μm nitrocellulose membranes (Bio-Rad Laboratories, Hercules, CA, USA). Membranes were blocked with 5% non-fat milk at room temperature for 2 hours and then incubated overnight at 4° C. with the following primary antibodies: inhibitor of KB-α (IκB-α; #9242, Cell Signaling Technology, Inc., Danvers, MA) and β-actin (#A1978, Millipore-Sigma). Membranes were then incubated with either goat anti-mouse IgG (H+L) (#31430, Thermo Fisher Scientific Inc.; 1:5000) or goat anti-rabbit IgG (H+L) (#31460, Thermo Fisher Scientific Inc.; 1:3000) horseradish peroxidase-conjugated polyclonal secondary antibodies at room temperature for 2 hours. Proteins were visualized using an enhanced chemiluminescence kit (Abcam), and protein bands were imaged and analyzed using Image Lab software (Version 6.0; Bio-Rad Laboratories, Inc., Hercules, CA). The intensities of protein bands were quantitated by Image J software (National Institutes of Health, Bethesda, MD).

rat lung grafts = assay: Rat orthotopic left lung transplantation following EVLP; assay type: in vivo
Experimental: Rat orthotopic left lung transplantation following EVLP: Orthotopic, single-lung transplantation of the left lung was performed using the 3-cuff method. After EVLP for 4 hours, the lungs were cooled with 4° C. Perfadex on the EVLP system and stored at 4° C. for 1 hour prior to transplantation. The recipient animals were sacrificed 2 hours after reperfusion. When analyzing graft function, the native lung was clamped, 100% 02 was administered for 5 minutes through a ventilator, and the recipient's blood was sampled from the graft pulmonary vein for blood gas analysis.
as §1
(§2) Tissue staining and histopathological analysis: Formalin-fixed, paraffin-embedded lung tissues collected 2 hours after transplantation were sectioned to 4 μm thickness and stained with hematoxylin and eosin. In parallel, sections of tissue collected after 4 hours of EVLP were stained for immunofluorescence imaging using primary antibodies for syndecan-1 (DL-101) (#sc-12765, Santa Cruz) and caveolin-1 (#3238, Cell Signaling Technology, Danvers, MA) and with Hoechst 33342 dye (Thermo Scientific). Donkey Cy3-conjugated anti-mouse IgG (#AP192C, MilliporeSigma, Burlington, MA) and Cy5-conjugated goat anti-rabbit IgG (#A10523, Thermo Scientific) secondary antibodies were used to detect primary antibodies. Stained slides were scanned with a whole-slide image scanner (Axio Scan.Z1; Carl Zeiss AB, Oberkochen, Germany) and analyzed with digital image processing software (ZEN lite blue edition; Carl Zeiss).

[3] = tested on: glycosaminoglycans (GAGs), syndecan-1; assay: Glycocalyx shedding in rat lungs during EVLP (GAGs, syndecan-1 ELISA, immunofluorescence)
Experimental: Syndecan-1 ELISA: Syndecan-1 concentrations in EVLP perfusate were quantitated using ELISA (Immunotag™ Rat Syndecan-1 ELISA, G-Biosciences, Geno Technology, Inc., St. Louis, MO). ELISA was performed according to the manufacturer's instructions using perfusate samples acquired after 4 hours of EVLP.
Determination of glycosaminoglycans (GAGS): The concentration of GAGs in rat EVLP perfusate at 4 hours was quantitated using 1,9-dimethylmethylene blue (DMMB, Millipore Sigma). The DMMB solution (pH˜3.0) was prepared by dissolving 16 mg/I DMMB in distilled H2O containing 3.04 g/I glycine, 1.6 g/l NaCl and 95 ml 0.1 M acetic acid. Briefly, 1 ml DMMB solution was mixed with 100 μl EVLP perfusate then incubated for 18 h at room temperature. The tubes were then centrifuged at 14,000 rpm for 20 min at 4° C. Supernatants were carefully decanted, 100 μl dissolvent buffer (4 M guanidine hydrochloride, 50 mM sodium acetate, 10% propan-1-ol, pH 6.8) was added to each pellet, and the tubes were incubated at 40° C. and vortexed until GAG-DMMB pellets were completely dissolved. GAG content in each sample was measured spectrophotometrically at 656 nm.
as §2

rat lungs = assay: Rat EVLP for 4 hours with HPSE inhibitors in the perfusate: physiology, endothelial barrier, edema; conditions: heparin 1000-U/hour or SF4 1 μM in perfusate
Experimental: In the heparin group, 1000-U of heparin were initially added to the EVLP perfusate, then 1000-U of heparin were administered every hour during EVLP. […] Two control conditions were included in the experimental protocol: 1) sham controls (Sham) were lungs not placed on EVLP and 2) untreated controls (Control) were lungs placed on EVLP without HPSE inhibitor treatment. EVLP physiology, endothelial integrity, inflammation and glycocalyx preservation for EVLP lungs and post-transplant lung grafts were investigated across all treatment regimens.
Ex vivo lung perfusion in rats: EVLP was performed using a commercially-available rodent EVLP system (IL-2 Isolated Perfused Rat or Guinea Pig Lung System; Harvard apparatus, Holliston, MA). Acellular Steen solution was used for EVLP perfusate and medicated with methylprednisolone (Solu-Medrol®; Pfizer, Inc., New York, NY) and cephalosporin (Cefazolin; WG critical care LLC, Paramus, NJ) equally in all experimental groups. […] Pulmonary artery pressure, peak airway pressure, and airway flow were monitored continuously, and dynamic lung compliance (Cdyn) and pulmonary vascular resistance (PVR) were analyzed.
Evaluation of endothellal barrier Integrity After 4 hours of EVLP, 60 mg of Evans blue dye (EBD, Millipore-Sigma, Burlington, MA) was administered into the perfusate to assess vascular endothelial permeability. After 30 minutes of perfusion, the lung vascular bed was rinsed with 20 ml of phosphate-buffered saline (PBS), and slices of lungs were incubated in formamide (Millipore Sigma) overnight at 60° C. Absorbance of the extractant was measured at 620 nm, and EBD was normalized to dry-tissue weight.
Wet-to-Dry (W/D) weight ratio: Lung tissues collected 2 hours after transplant were immediately weighed then placed in a 60° C. oven to dry for 72 hours. Tissues were weighed again after drying to determine the wet-to-dry lung weight ratio.

[4] = 100 nM SF4, 250 mM amodiaquine, 250 mM triazolothiadiazoles
[5] = 2 hours after transplant, vs untreated control and heparin-pretreated lungs

SMILES | β-D-glucuronidase activity, dose response (heparanase (HPSE)) | Relative mRNA expression (compared to control) Bax ([1]; 100 nM SF4) | Relative mRNA expression (compared to control) Bcl-xl [1, 4] | Relative mRNA expression (compared to control) HO-1 [1, 4] | Relative mRNA expression (compared to control) IL6 [1, 4] | Relative mRNA expression (compared to control) MCP1 [1, 4] | IL-1β mRNA expression ([2]; lung tissue after 4-hours EVLP) | IL-6 mRNA expression ([2]; lung tissue after 4-hours EVLP) | TNF-α mRNA expression ([2]; lung tissue after 4-hours EVLP) | IκB-α expression (western blot) ([2]; lung tissue after 4-hours EVLP, vs control and heparin groups) | HPSE1 mRNA expression ([2]; lung tissue after 4 hours of EVLP, vs sham) | H&E histology of grafts (rat lung grafts; 2 hours after transplant following 4 hours of EVLP) | IL-1β mRNA expression (rat lung grafts; [5]) | IL-6 mRNA expression (rat lung grafts; [5]) | TNF-α mRNA expression (rat lung grafts; [5]) | syndecan-1 immunofluorescent staining of lung endothelial lumen ([3]; after 4-hours EVLP, vs controls and heparin-treated) | syndecan-1 concentration in EVLP perfusate ([3]; after 4 hours EVLP, SF4 vs heparin-treated, heparin vs controls) | GAGs content in EVLP perfusate ([3]; at 4-hours EVLP, vs controls) | dynamic lung compliance (Cdyn) during EVLP (rat lungs; 4-hour EVLP, vs control) | Evans blue dye (EBD) accumulation in lung tissue (rat lungs; after 4-hours EVLP)
O=C(O)Cc1ccc2oc(-c3ccc(NC(=O)/C=C/c4ccc(Br)cc4)c(F)c3)nc2c1 [OGT-2113] | dose-dependent |  |  |  |  |  |  |  |  |  |  |  |  |  |  |  |  |  |  | 
CCN(CC)Cc1cc(Nc2ccnc3cc(Cl)ccc23)ccc1O [Amodiaquine, amodiaquine] | dose-dependent | 0.71 | 1.30 | 2.94 | 13.55 | 3.45 |  |  |  |  |  |  |  |  |  |  |  |  |  | 
Cl.O=C(O)[C@H]1CN[C@H](NC(=O)C(F)(F)F)[C@@H](O)[C@H]1O [SF4, (3S,4S,5R,6R)-4,5-dihydroxy-6-[(2,2,2-trifluoroacetyl)amino]piperidine-3-carboxylic acid] |  |  |  |  |  |  | significantly downregulated | significantly downregulated | significantly downregulated | significantly stabilized | not altered | reduced swollen alveolar walls, congestion in the blood vessels, and fluid leaks | significantly lower | significantly lower | significantly lower | significantly increased staining | significantly lower | significantly reduced | neither heparin nor SF4 altered Cdyn | markedly decreased
